According to patent US20250382261A1 (The Broad Institute, Inc., priority 2021, published 2025):

Tests used:
LPS from E. coli EH100 = test: BODIPY-Cadaverine LPS displacement assay; assay type: binding; conditions: BODIPY-cadaverine displacement from E. coli EH100 LPS
Procedure: BODIPY-Cadaverine LPS displacement assay. The BODIPY-cadaverine LPS displacement assay was performed as previously described (Wood et al. 2004. Combinatorial Chemistry & High Throughput Screening, 7: 239-49; Klobucar et al. 2021. ACS Chemical Biology, 16: 929-42). A solution of BODIPY-cadaverine (2.25 μM) and LPS from E. coli EH100 (5.25 μM) in Tris-HCl buffer (50 mM, pH 7.4) was prepared. 0.5 μL of compound and 49.5 μL of the Tris-HCl buffer with BODIPY-cadaverine and LPS solution were added to a Corning nonbinding surface black 384-well polystyrene plate. Fluorescence intensity was measured immediately with an excitation wavelength of 580 nm and an emission wavelength of 620 nm. EC50 values were calculated using a three-parameter logistic curve in GraphPad Prism 9.

[1] = In vitro metabolic stability, human; assay type: in vitro ADME; conditions: read-out: In vitro metabolic stability (t1/2, min), human
[2] = HEK293 cytotoxicity assay (Cell Titer Glo); assay type: cell-based; conditions: human, HEK293T Cytotoxicity (IC50, μg/mL)
Procedure: (§1) Cytotoxicity Assays. HEK293 (ATCC CRL 1573) cells were left to adhere for 18 h at 7.5×10^3 cells per well in DMEM containing 10% FBS and 2 mM L-glutamine. Compound was added directly into the well. After 48 h of treatment Promega Cell Titer Glo 2.0® was added, shaken for 10 min, and luminescence read (Biotek Neo). AC50 values were calculated using a four-parameter logistic curve in GraphPad Prism 9.
(§2) Focusing on only the analogs that retained synergistic activity with novobiocin (FICI≤0.5), half-maximal activity (AC50) values were calculated against HEK293 cells using a CellTiter-Glo® based assay to approximate cell viability. […] Specifically, the FICI value for both P35 and P36 was 0.094 against A. baumannii, while their AC50 values were 235 μg/mL and 200 μg/mL, respectively.

[3] = test system: HEK293 (ATCC CRL 1573) cells; test: HEK293 cytotoxicity assay (Cell Titer Glo); assay type: cell-based; conditions: human, 48 h
Procedure: as §1, §2

HepG2 cells = conditions: human, 72 h, 75 µM
CYP1A2 = biological target: T1, CYP1A2 (Homo sapiens, UniProt P05177); test: P450 inhibition; assay type: in vitro ADME; conditions: read-out: P450 Inhibition CYP 1A2 (IC50)
T1 construct: Cyprotex Ltd. (contract laboratory that ran the assay)
T1 sequence (P05177 1-516): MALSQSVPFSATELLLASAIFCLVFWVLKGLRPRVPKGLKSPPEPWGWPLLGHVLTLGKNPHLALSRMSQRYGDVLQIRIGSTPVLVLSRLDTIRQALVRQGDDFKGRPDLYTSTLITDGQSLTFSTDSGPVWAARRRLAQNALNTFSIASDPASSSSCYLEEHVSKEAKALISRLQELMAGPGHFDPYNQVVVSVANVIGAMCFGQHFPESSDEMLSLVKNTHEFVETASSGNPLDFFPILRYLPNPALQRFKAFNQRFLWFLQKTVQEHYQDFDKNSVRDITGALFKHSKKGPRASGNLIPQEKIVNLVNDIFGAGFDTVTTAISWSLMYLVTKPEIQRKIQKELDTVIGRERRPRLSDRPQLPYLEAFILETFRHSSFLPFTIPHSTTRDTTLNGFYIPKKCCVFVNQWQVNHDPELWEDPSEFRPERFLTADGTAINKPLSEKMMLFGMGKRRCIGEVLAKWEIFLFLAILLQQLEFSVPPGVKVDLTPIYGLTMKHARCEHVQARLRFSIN
Procedure: P450 inhibition. An 8-point dose-response of P35 (0, 0.1, 0.25, 1, 2.5, 10, 25 μM) was tested against the following cytochrome P450 (CYP) isoforms CYP3A4, CYP2C9, CYP2D6, CYP1A2, and CYP2C19. Reduction in metabolite formation was quantified using LC-MS/MS (with the exception of ethoxyresorufin for CYP1A2) to calculate an IC50 value. This assay was performed by Cyprotex Ltd.

A. baumannii = test: Fold reduction of antibiotic MIC at fixed adjuvant concentration; assay type: cell-based; conditions: pentamidine or P35 at 50 μg/mL
Procedure: Bacterial strains and culture conditions. The following bacterial strains were used within this study; A. baumannii (ATCC 17978), K. pneumoniae (ATCC 43816), K. pneumoniae (ATCC 43816, expressing pGDP2:mcr-1), P. aeruginosa (PA01). Bacterial growth was in cation-adjusted Mueller-Hinton broth (MHB) at 37° C., and inoculum was prepared according to CLSI protocol (CLSI 2015).
Potentiation assays. Checkerboard analyses were conducted with each drug serially diluted at eight concentrations to create an 8×8 matrix. At least two biological replicates were done for each combination, and the means were used for FIC calculation. The FIC for each drug was calculated by dividing the concentration of the drug in the presence of codrug in a combination for a well showing <10% growth by the MIC for that drug alone. The FIC index (FICI) is the sum of the two FICs, with an FIC index≤0.5 deemed synergistic.

Compound: N=C(N)c1ccc(OCCN(CCOc2ccc(C(=N)N)cc2)c2ccccc2)cc1 [Analog P35]
- LPS Displacement (EC50, μg/mL) (LPS from E. coli EH100): 87.21 µg/mL
- half-life [1]: > 145 min
- IC50 at 48 h [2]: 235 µg/mL
- HEK293T Cytotoxicity (IC50, μg/mL) [3]: 235.4 µg/mL
- Phospholipidosis MR, percentage in brackets (HepG2 cells): 104%
- IC50 (CYP1A2): > 50 µM
- Average Fold-reduction in MIC, Ampicillin (A. baumannii; MIC of ampicillin in A. baumannii): 1 fold
- Average Fold-reduction in MIC, Bacitracin (A. baumannii; MIC of bacitracin in A. baumannii): 2 fold
- Average Fold-reduction in MIC, Chloramphenicol (A. baumannii; MIC of chloramphenicol in A. baumannii): 2 fold
- Average Fold-reduction in MIC, Clarithromycin (A. baumannii; MIC of clarithromycin in A. baumannii): 384 fold
- Average Fold-reduction in MIC, Doxycycline (A. baumannii; MIC of doxycycline in A. baumannii): 4 fold
- Average Fold-reduction in MIC, Erythromycin (A. baumannii; MIC of erythromycin in A. baumannii): 32 fold
- Average Fold-reduction in MIC, Fusidic Acid (A. baumannii; MIC of fusidic acid in A. baumannii): 341.33 fold
- Average Fold-reduction in MIC, Linezolid (A. baumannii; MIC of linezolid in A. baumannii): 8 fold
- Average Fold-reduction in MIC, Meropenem (A. baumannii; MIC of meropenem in A. baumannii): 4 fold
- Average Fold-reduction in MIC, Mupirocin (A. baumannii; MIC of mupirocin in A. baumannii): 4 fold
- Average Fold-reduction in MIC, Nafcillin (A. baumannii; MIC of nafcillin in A. baumannii): 1.5 fold
- Average Fold-reduction in MIC, Nalidixic Acid (A. baumannii; MIC of nalidixic acid in A. baumannii): 4 fold
- Average Fold-reduction in MIC, Novobiocin (A. baumannii; MIC of novobiocin in A. baumannii): 512 fold
- Average Fold-reduction in MIC, Oxacillin (A. baumannii; MIC of oxacillin in A. baumannii): 1 fold
- Average Fold-reduction in MIC, Rifampicin (A. baumannii; MIC of rifampicin in A. baumannii): 384 fold
- Average Fold-reduction in MIC, Rifaximin (A. baumannii; MIC of rifaximin in A. baumannii): 256 fold
- Average Fold-reduction in MIC, Roxithromycin (A. baumannii; MIC of roxithromycin in A. baumannii): 341.33 fold
- Average Fold-reduction in MIC, Thiostrepton (A. baumannii; MIC of thiostrepton in A. baumannii): 170.67 fold
- Average Fold-reduction in MIC, Trimethoprim (A. baumannii; MIC of trimethoprim in A. baumannii): 5.33 fold
- Average Fold-reduction in MIC, Vancomycin (A. baumannii; MIC of vancomycin in A. baumannii): 4 fold
